Laboratory results reported in patent US10155948B2, “Pharmaceutical composition for preventing or treating diabetic complications and screening method for preventive or therapeutic agent for diabetic complications” (KANGWON NATIONAL UNIVERSITY UNIVERSITY-INDUSTRY COOPERATION …, priority 2016, dated 2018).

Legend:
TGase2 = molecular target: T1, TGase2 (Mus musculus, UniProt P21981); test: In-vivo TGase activity in retina of streptozotocin-diabetic mice; conditions: for hyperglycemia-induced TGase2 activation in diabetic retina (in-vivo TGase activity): diabetic mice, intravitreal 2 μl: 50 mM cystamine, 20 mM MDC, 1 μM C-peptide, 2 μM Trolox, 500 mM NAC, after 24 hrs, n=8; for increase of TGase activity in retinas of diabetic mice: intravitreal injection, 0.5 mM dopamine, 500 mM cysteamine
T1 construct: from tissue; host or cells: retina of streptozotocin-diabetic C57BL/6 mice
T1 sequence (P21981 1-686): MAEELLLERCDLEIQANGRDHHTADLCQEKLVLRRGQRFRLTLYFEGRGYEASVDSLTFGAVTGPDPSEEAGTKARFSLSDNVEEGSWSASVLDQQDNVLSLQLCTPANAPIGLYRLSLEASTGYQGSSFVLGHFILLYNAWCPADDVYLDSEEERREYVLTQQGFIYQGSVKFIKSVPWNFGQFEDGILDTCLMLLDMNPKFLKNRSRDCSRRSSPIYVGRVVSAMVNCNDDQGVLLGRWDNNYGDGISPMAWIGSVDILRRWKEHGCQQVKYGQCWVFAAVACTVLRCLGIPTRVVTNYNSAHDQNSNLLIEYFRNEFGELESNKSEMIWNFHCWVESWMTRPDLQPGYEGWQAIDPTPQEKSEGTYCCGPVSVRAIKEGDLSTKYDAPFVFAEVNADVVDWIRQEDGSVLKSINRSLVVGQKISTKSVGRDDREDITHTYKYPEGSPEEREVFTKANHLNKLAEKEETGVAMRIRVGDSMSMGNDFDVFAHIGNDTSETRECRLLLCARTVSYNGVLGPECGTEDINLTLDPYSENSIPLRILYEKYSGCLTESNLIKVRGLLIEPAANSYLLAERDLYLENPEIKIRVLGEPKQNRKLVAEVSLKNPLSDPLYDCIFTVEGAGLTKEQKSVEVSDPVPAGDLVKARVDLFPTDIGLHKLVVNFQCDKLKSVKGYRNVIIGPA
Method: (§1) Two weeks after streptozotocin injection, diabetic mice were intravitreally injected with 2 μl of TGase inhibitors (50 mM cystamine or 20 mM MDC), 1 μM C-peptide (American Peptide Company, Sunnyvale, Calif.), ROS scavengers (2 μM Trolox or 500 mM NAC), or 65 μM mouse TG2-specific siRNA (Dharmacon, Lafayette, Colo.) into one eye and an equal volume of PBS or mouse control siRNA (Dharmacon, Lafayette, Colo.) into the contralateral eye. Non-diabetic mice were also intravitreally injected with 2 μl of PBS or mouse control siRNA into the eyes. After 24 hrs for inhibitors or C-peptide or 48 hrs for mouse TGase2 siRNA, mice were subjected to measurement of in-vivo TGase activity and vascular leakage from the retina.
In vivo Tgase transamidating activity was determined in mouse retina using confocal microscopy (FIG. 5A). 24 hrs after intravitreal injection of TGase2 inhibitors and C-peptide or 48 h after the injection of mouse TGase2-specific siRNA, mice were deeply anaesthetized using 2.5% avertin and 48 μl of 100 mM BAPA was injected into the left ventricle. BAPA was allowed to circulate for 10 min and mice were sacrificed by cervical dislocation. Eyes were then enucleated and immediately fixed with 4% paraformaldehyde for 45 min. Retinas were dissected in the Maltese cross-configuration and permeabilized with 0.2% Triton X-100 in PBS for 30 min at RT. After incubation with the blocking solution for 30 min, retinas were treated with FITC-conjugated streptavidin (1:200, v/v) in the blocking solution for 1 hr at RT. The superficial vessels of stained retinas (n=8 per group) were observed using confocal microscopy and fluorescence intensities were analyzed using Fluoview software (FV-300). In-vivo TGase activities were quantitatively determined using fluorescence intensities in the retinas of normal and diabetic mice.
(§2) Six-week-old male C57BL/6 mice were obtained from KOATECH (Pyeongtaek, Korea). TGase2^−/− mice (C57BL/6) were prepared by disrupting exons 5 and 6 of TGase2 by homologous recombination, as previously described. Diabetic mice were generated by a single intraperitoneal injection of streptozotocin (150 mg/kg body weight, Sigma) freshly prepared in 100 mM citrate buffer (pH 4.5) as previously described. Mice with non-fasting blood glucose levels greater than 19 mM, polyuria and glucosuria were considered diabetic. Experiments were performed in strict accordance with the guidelines of the Institutional Animal Care and Use Ethics Committee of Kangwon National University.
To validate the in-vitro findings, the present inventors further investigated the role of TGase2 in hyperglycemia-induced vascular leakage in the retina of diabetic mice. For this study, the present inventors designed an in-vivo TGase activity assay using confocal microscopy in mouse retina (FIG. 5A). In this assay, BAPA, which is a TGase2 pseudo substrate, was systemically delivered into the blood circulatory system by injection into the left ventricles of mice, and biotinylated proteins in the retinas were probed with FITC-conjugated streptavidin.
(A) A schematic diagram for determining TGase2 activity in mouse retina. (B,C) Streptozotocin-induced diabetic mice were intravitreally injected with 2 μl cystamine (diabetic+Cys), MDC (diabetic+MDC), C-peptide (diabetic+C-pep), Trolox (diabetic+Trolox) or NAC (diabetic+NAC) into one eye and an equal volume of PBS into the contralateral eye (diabetic). Non-diabetic mice were also intravitreally injected with 2 μl PBS into both eyes (normal). TGase2 activities in retinas were visualized by confocal microscopy and quantitatively determined as described in Research Design and Methods (n=8 per group). (B) Representative TGase activity images in the retinas. […] Scale bar, […]. (C) In-vivo TGase activities were quantified by measuring the fluorescence intensity in retinas (***p<0.001). […]

retinas of diabetic mice = test: Vascular leakage in retina of diabetic mice (fluorescein angiography, FITC-dextran); type: in vivo, mouse; conditions: for vascular leakage in diabetic retina (FITC-dextran extravasation): diabetic mice, intravitreal 2 μl 50 mM cystamine or 20 mM MDC, after 24 hrs, p<0.001, n=8; for increase of vascular leakage in retinas of diabetic mice: intravitreal injection, 0.5 mM dopamine, 500 mM cysteamine, n=6
Method: as §1
Microvascular leakage in mouse retina was investigated via the fluorescein angiography method as previously described. In brief, 24 hrs or 48 hrs after intravitreal injection of TGase2 inhibitors or mouse TGase2 siRNA, respectively, mice were deeply anaesthetized and 1.25 mg of 500 kDa FITC-dextran (Sigma) was injected into the left ventricle. The dye was allowed to circulate for 5 min and mice were sacrificed via cervical dislocation. The eyes were enucleated and immediately fixed with 4% paraformaldehyde for 45 min. Retinas were dissected in the Maltese cross-configuration and flat-mounted onto glass slides. The superficial vessels of the retinas (n=8 per group) were observed by confocal microscopy and vascular leakage was quantitatively analyzed using the Fluoview software by determining the fluorescence intensities of FITC-dextran extravasated from the retina vessel.
as §2
(A, B) Streptozotocin-diabetic mice were intravitreally injected with PBS (diabetic), cystamine (diabetic+Cys) or MDC (diabetic+MDC) into the eyes. Non-diabetic mice were also intravitreally injected with PBS into eyes (normal). […] (B) Retina permeability was quantified by measuring the fluorescence intensities of FITC-dextran in (A). […]
Dopamine and cysteamine were intravitreally injected into mouse eyes, and diabetic retinas were then analyzed for vascular leakage through fluorescein angiography.

Compound	hyperglycemia-induced TGase2 activation in diabetic retina (in-vivo TGase activity) (TGase2)	vascular leakage in diabetic retina (FITC-dextran extravasation) (retinas of diabetic mice)	increase of TGase activity in retinas of diabetic mice (TGase2)	increase of vascular leakage in retinas of diabetic mice (retinas of diabetic mice)
NCCSSCCN [cystamine]	suppressed	prevented		
NCCS [cysteamine]			inhibited	inhibited
NCCc1ccc(O)c(O)c1 [dopamine]			inhibited	inhibited
Cc1c(C)c2c(c(C)c1O)CCC(C)(C(=O)O)O2 (stereo not drawn) [Trolox]	prevented			
CN(C)c1cccc2c(S(=O)(=O)NCCCCCN)cccc12 [MDC, monodansylcadaverine]	suppressed	prevented		
